Data as given in ChEMBL document CHEMBL6121006, “Marine natural product-inspired discovery of novel BRD4 inhibitors with anti-inflammatory activity” (Eur J Med Chem, 2025).
The source made the active and inactive calls. The calls are words filed in the database; no cut-off is given here.

Assays:
RAW264.7 = experiment: Anti-inflammatory activity in mouse RAW264.7 cells assessed as inhibition of LPS-induced NO production at 10 uM preincubated with compound for 24 hrs followed by LPS stimulation by Griess reagent based analysis relative to control; format: functional; set-up: scale not given: the % may be the effect or the level left
[1] = molecular target: Bromodomain testis-specific protein (Homo sapiens) (UniProt Q58F21); experiment: Inhibition of BRDT BD2 (unknown origin) at 1 uM incubated for 2 hrs by TR-FRET assay relative to control
Mus musculus = experiment: Antiinflammatory activity against C57BL/6 mouse acute inflammation model assessed as reduction in LPS induced lung pulmonary hemorrhage at 50 to 100 mg/kg, po pre-administered for 2 hrs followed by LPS stimulation for 6 hrs; format: functional, organism-based; settings: dose 50-100 mg/kg, time 8.0 hrs
THP-1 = experiment: Anti-inflammatory activity in human THP-1 cells assessed as inhibition of LPS-induced TNF-alpha expression preincubated with compound for 2 hrs followed by LPS stimulation and measured after 6 hrs by RT-qPCR analysis; format: functional, cell-based; settings: dose 2.5-20 µM, time 8.0 hrs
[2] = Toxicity in C57BL/6 mouse effect on heart at 100 mg/kg, po measured after 24 hrs; format: organism-based; settings: in vivo

- inhibition [1]: 7%
SMILES: COc1ccc(/C=C/c2nc3cc(OC)cc(OC)c3c(=O)[nH]2)cc1
- Activity (RAW264.7): 106%
- Activity (Mus musculus): Active
- Activity (THP-1): Dose-dependent-effect
- Activity [2]: Non-toxic
